The text below walks through data of patent US20200216416A1, “QUINOLINE COMPOUNDS AS INHIBITORS OF TAM AND MET KINASES” (Array BioPharma Inc., priority 2019, published 2020).

For orientation: IC50 means the point on the concentration scale where inhibition reaches its midpoint. The Papp is a coefficient for how fast a substance crosses the barrier. Lower therefore signals poor permeation.

The target in data set [1] is T1, human MET kinase F1200I (Homo sapiens, UniProt P08581, F1200I).
T1 construct: GST-tagged recombinant human MET kinase domain; purchased Signal Chem
The experiment in a line: c-Met Enzyme Assay, F1200I mutant. The note with it: averaged IC50; F1200I 2 nM; 60-minute incubation at 22° C. Type of data set: binding. Put shortly:
(§1)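 GST-tagged recombinant MET kinase domain was incubated with 50 nM Alexa-Fluor tracer 236, 2 nM Eu-anti-GST and compound in 25 mM HEPES pH 7.4, 10 mM MgCl2, 0.01% Triton X-100, 1 mM DTT, 2% DMSO for 60 min at 22 °C. TR-FRET ratio gave percent of control, fitted 4-parameter; IC50 at 50 POC.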

Data set [2] has as its target T2, human MET kinase L1195V (Homo sapiens, UniProt P08581, L1195V).
T2 construct: GST-tagged recombinant human MET kinase domain; purchased Signal Chem
The data set can be described thus: c-Met Enzyme Assay, L1195V mutant. In kind it is binding. To be noted: averaged IC50; L1195V 10 nM; 60-minute incubation at 22° C. The method, boiled down: as §1

The target of data set [3] is T3, MET (wt) GST-tagged recombinant human MET kinase domain (Homo sapiens, UniProt P08581).
T3 construct: GST-tagged recombinant human MET kinase domain; purchased Signal Chem
The data set can be described thus: c-Met Enzyme Assay, wild type (LanthaScreen Eu Kinase Binding). To be noted: averaged IC50; MET (wt) 10 nM; 60-minute incubation at 22° C.; read-out: SigChem WT IC50. Put shortly: as §1
In general terms: In TR-FRET formats the signal depends on donor and acceptor labels being close together.

In data set [4] the target is T4, human MET kinase Y1230H (Homo sapiens, UniProt P08581, Y1230H).
T4 construct: GST-tagged recombinant human MET kinase domain; purchased Signal Chem
The experiment in a line: c-Met Enzyme Assay, Y1230H mutant. Type of data set: binding. To be noted: averaged IC50; Y1230H 5 nM; 60-minute incubation at 22° C.; read-out: Y1230 H IC50. Put shortly: as §1

The target of data set [5] is T5, human MET kinase Y1230C (Homo sapiens, UniProt P08581, Y1230C).
T5 construct: GST-tagged recombinant human MET kinase domain; purchased Signal Chem
The data set can be described thus: c-Met Enzyme Assay, Y1230C mutant. Type of data set: binding. The note with it: averaged IC50; Y1230C 2 nM; 60-minute incubation at 22° C.; read-out: Y1230 C IC50. Put shortly: as §1

The target in data set [6] is T6, MDR1 (P-gp) (Homo sapiens, UniProt P08183).
T6 construct: expressed in transfected cells; host or cells: LLC-PK1
The data set can be described thus: MDR1 LLC-PK1 permeability assay. In kind it is in vitro ADME. The note with it: pig, MDR1 transfected LLC-PK1 cells; for Papp at 2 h, 1 μM: permeability coefficient (Papp). The method, boiled down:
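MDR1-transfected LLC-PK1 monolayers dosed at 1 μM test article (1% organic) in A→B and B→A directions, in triplicate, for 2 h at 37 °C; lucifer yellow monitored monolayer integrity. Compound measured by LC-MS/MS against labetalol internal standard; Papp averaged per replicate, efflux ratio = Papp(B−A)/Papp(A−B).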

In data set [7] the target is T7, human MET kinase Y1230S (Homo sapiens, UniProt P08581, Y1230S).
T7 construct: GST-tagged recombinant human MET kinase domain; purchased Signal Chem
The experiment in a line: c-Met Enzyme Assay, Y1230S mutant. Type of data set: binding. The note with it: averaged IC50; Y1230S 8 nM; 60-minute incubation at 22° C.; read-out: Y1230 S IC50. Put shortly:
as §1

[8] abbreviates: LLC-PK1, efflux ratio = Papp(B-A)/Papp(A-B), read-out: MDR1 Pe Ratio.

Like-named read-outs stand apart in the source and are kept apart here.

T1 sequence (P08581 1078-1345 F1200I limits assumed): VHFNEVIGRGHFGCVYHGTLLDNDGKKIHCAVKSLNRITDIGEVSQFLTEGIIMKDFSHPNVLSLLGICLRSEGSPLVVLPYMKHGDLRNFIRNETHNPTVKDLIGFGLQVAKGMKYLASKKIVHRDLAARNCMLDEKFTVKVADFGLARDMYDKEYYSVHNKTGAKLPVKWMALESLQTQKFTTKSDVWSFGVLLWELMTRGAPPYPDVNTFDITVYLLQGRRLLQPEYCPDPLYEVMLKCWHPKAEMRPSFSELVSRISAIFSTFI
T4 sequence (P08581 1078-1345 Y1230H): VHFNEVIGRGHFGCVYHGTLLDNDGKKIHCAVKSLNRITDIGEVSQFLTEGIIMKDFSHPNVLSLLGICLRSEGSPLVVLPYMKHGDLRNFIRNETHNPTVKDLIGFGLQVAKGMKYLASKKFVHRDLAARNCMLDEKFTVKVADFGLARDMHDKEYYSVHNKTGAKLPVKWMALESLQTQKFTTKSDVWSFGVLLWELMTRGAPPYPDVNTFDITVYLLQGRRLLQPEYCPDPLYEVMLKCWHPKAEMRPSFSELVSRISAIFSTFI
T2 sequence (P08581 1078-1345 L1195V limits assumed): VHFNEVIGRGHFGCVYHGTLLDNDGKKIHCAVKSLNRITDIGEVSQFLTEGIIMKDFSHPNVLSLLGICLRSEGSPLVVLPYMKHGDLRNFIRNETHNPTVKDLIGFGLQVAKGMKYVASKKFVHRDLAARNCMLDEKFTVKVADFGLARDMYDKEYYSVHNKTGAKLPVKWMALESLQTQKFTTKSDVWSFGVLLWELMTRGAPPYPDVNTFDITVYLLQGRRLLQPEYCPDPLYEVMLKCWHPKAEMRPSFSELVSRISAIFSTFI
T5 sequence (P08581 1078-1345 Y1230C): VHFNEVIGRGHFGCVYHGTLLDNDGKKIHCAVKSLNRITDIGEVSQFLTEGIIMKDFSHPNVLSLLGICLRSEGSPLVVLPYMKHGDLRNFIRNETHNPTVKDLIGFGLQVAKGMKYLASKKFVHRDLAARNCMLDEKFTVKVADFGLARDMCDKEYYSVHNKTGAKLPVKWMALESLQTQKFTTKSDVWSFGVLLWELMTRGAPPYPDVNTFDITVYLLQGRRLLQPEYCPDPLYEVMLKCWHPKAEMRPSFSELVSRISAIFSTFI
T3 sequence (P08581 1078-1345 limits assumed): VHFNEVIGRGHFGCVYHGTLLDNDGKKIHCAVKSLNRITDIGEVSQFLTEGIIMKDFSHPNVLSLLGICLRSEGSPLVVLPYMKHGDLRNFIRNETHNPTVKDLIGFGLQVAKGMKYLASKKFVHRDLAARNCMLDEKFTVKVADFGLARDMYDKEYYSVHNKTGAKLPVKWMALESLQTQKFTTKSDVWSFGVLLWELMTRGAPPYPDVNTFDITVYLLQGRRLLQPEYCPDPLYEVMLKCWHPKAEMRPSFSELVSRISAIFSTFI
T6 sequence (P08183 whole entry): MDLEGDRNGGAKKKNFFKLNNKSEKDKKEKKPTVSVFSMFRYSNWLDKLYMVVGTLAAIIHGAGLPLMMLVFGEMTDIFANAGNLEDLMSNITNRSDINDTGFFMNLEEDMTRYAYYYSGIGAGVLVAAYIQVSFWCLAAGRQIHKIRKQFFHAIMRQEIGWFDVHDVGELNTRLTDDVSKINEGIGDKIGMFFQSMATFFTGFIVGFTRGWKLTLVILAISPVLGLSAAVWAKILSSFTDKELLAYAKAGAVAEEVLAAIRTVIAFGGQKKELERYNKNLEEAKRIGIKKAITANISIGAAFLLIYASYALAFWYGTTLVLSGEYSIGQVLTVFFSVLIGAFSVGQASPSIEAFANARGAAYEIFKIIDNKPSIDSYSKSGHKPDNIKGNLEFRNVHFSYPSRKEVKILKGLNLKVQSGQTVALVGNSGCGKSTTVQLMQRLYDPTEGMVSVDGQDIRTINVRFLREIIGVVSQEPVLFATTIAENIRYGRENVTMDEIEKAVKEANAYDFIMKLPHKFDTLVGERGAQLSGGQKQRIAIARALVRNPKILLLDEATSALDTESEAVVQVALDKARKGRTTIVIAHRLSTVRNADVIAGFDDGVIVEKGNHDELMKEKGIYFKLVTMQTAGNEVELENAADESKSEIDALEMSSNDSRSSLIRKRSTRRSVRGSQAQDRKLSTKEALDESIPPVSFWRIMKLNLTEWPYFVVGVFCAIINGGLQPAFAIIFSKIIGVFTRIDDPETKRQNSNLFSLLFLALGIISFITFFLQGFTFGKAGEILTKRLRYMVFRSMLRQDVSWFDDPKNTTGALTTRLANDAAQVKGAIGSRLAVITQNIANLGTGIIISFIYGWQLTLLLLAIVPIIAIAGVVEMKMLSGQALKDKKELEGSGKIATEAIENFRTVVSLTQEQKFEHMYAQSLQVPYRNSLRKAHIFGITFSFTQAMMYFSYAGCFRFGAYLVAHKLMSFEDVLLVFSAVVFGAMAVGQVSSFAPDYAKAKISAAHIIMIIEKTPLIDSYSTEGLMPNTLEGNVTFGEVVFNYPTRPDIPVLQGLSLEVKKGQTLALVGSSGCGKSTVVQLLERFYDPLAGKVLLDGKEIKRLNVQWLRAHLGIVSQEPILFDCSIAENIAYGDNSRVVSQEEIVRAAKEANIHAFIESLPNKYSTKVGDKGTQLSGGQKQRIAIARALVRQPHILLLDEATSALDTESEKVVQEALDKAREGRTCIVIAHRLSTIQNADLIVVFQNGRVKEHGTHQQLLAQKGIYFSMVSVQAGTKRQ
T7 sequence (P08581 1078-1345 Y1230S): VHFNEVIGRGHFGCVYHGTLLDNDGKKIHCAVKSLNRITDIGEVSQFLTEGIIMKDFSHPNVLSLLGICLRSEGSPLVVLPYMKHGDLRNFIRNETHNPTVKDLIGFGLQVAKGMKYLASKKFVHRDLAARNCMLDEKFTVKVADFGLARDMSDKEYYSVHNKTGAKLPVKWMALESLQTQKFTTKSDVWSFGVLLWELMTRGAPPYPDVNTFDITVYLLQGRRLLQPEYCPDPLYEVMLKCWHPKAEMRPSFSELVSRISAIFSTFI

With `COc1cc2nccc(Oc3ccc(NC(=O)c4cn(C(C)C)cc(-c5ccc(F)cc5)c4=O)cn3)c2cc1OC` [Example 58, N-(6-((6,7-dimethoxyquinolin-4-yl)oxy)pyridin-3-yl)-5-(4-fluorophenyl)-1-isopropyl-4-oxo-1,4-dihydropyridine-3-carboxamide], the concentration for half-maximal inhibition (IC50) is 3.5 nM in data set [1]; 35 nM in data set [2]; 2.7 nM in data set [3]; 5.3 nM in data set [4]; 2.2 nM in data set [5]; 2.7 nM in data set [7]. In addition, the efflux ratio at 2 h, 1 μM in data set [6] (LLC-PK1, Papp(B−A)/Papp(A−B), test article 1 μM, 2 hours, 37° C., read-out: Efflux ratio) is 3.5; in data set [6] (setting [8]) it was 3. The compound further yielded a Papp at 2 h, 1 μM in data set [6] of 10 ×10⁻⁶ cm/s.
Turning to `CC(C)n1cc(C(=O)Nc2ccc(Oc3ccnc4cc(OC(F)(F)F)ccc34)cn2)c(=O)c(-c2ccc(F)cc2)c1` [Example 50, 5-(4-fluorophenyl)-1-isopropyl-4-oxo-N-(5-((7-(trifluoromethoxy)quinolin-4-yl)oxy)pyridin-2-yl)-1,4-dihydropyridine-3-carboxamide], the IC50 came to 104 nM in data set [1]; 1030 nM in data set [2]; 59.2 nM in data set [3]; 397 nM in data set [4]; 199 nM in data set [5]; 166 nM in data set [7]. Besides, in data set [6] (setting [8]), the efflux ratio at 2 h, 1 μM turned out to be 4.7. This compound came in with a Papp at 2 h, 1 μM in data set [6] of less than 1 ×10⁻⁶ cm/s.
For `COc1cc2nccc(Oc3ccc(NC(=O)c4cn(CC(=O)N5CCCC5)cc(-c5ccc(F)cc5F)c4=O)nc3)c2cc1OC` [Example 14], the IC50 in data set [1] came to 12.4 nM; in data set [2], 187 nM; in data set [3], 7.7 nM; in data set [4], 22.3 nM; in data set [5], 5.5 nM; in data set [7], 16.3 nM. Moreover, the efflux ratio at 2 h, 1 μM in data set [6] (setting [8]) was 125. This compound returned a Papp at 2 h, 1 μM in data set [6] of 10 ×10⁻⁶ cm/s.
